Calls of active or inactive are those of the source. For most assays here, no stated cut-off is given here; in the data, actives have a measured EC50 and inactives only a lower limit.
Key:
[1] = molecular target: T1, Mucolipin-3 (Homo sapiens, UniProt Q8TDD5); assay: Dose response cell-based high-throughput screening assay for agonists of the transient receptor potential channel ML3 (TRPML3). [Related pubchem assays: 1526, 1424, 1448 ]; type: functional
T1 sequence (Q8TDD5 whole entry): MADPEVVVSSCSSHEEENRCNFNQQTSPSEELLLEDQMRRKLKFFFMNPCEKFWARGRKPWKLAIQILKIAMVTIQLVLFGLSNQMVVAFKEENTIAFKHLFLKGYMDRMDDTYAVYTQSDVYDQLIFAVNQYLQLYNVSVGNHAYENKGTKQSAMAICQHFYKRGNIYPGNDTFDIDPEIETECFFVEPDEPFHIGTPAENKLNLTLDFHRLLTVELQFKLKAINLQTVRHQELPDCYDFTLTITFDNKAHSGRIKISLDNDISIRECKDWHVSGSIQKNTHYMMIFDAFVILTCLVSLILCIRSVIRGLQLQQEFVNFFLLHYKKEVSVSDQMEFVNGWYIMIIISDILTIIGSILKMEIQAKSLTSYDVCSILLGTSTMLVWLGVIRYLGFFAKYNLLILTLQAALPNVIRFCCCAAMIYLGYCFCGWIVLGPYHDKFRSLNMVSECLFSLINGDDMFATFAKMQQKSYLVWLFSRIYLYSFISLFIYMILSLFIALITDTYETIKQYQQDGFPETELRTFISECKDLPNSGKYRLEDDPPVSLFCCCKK

[2] = C. albicans growth with fluconazole, confirmation, fluorescence, retest (AID 2467); type: functional, cell-based
[3] = molecular target: ATP-dependent molecular chaperone HSP82 (Candida albicans (strain WO-1) (Yeast), UniProt C4YTQ8); assay: loss of DOC-induced GRE-beta-galactosidase reporter signal, dose response, Hsp90 inhibitor project, S. cerevisiae, luminescence (AID 2400); type: functional, cell-based;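 further: beta-galactosidase luminescence from glucocorticoid response element reporter as proxy for Hsp90 function; inhibitor potency where signal loss means Hsp90 inhibition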
Chain of ATP-dependent molecular chaperone HSP82 (C4YTQ8 whole entry): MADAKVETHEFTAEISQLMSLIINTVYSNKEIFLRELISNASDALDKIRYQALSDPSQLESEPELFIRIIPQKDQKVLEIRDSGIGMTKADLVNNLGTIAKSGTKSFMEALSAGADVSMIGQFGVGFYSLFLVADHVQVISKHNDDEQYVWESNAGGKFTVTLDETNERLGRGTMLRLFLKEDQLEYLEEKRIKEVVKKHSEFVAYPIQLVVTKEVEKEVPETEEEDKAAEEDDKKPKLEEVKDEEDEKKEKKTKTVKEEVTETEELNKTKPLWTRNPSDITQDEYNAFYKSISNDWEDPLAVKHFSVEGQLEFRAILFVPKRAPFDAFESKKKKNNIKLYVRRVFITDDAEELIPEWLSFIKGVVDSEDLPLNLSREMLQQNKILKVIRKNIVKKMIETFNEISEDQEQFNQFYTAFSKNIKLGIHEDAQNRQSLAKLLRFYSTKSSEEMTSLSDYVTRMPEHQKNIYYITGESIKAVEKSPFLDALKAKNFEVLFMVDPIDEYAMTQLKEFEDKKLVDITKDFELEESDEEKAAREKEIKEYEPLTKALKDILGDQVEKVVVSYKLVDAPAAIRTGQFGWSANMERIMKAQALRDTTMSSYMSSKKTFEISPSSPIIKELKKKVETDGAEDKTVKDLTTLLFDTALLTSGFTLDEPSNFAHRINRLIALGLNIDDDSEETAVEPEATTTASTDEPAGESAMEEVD

[4] = NIH-3T3 fibroblast cytotoxicity, dose response, cytotoxicity control, cell-based, fluorescence, Alamar Blue, secondary assay (AID 2327); type: functional;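 further: NIH-3T3 mouse fibroblasts cultured with fluconazole at 8 µg/mL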
[5] = molecular target: Ion channel NompC (Danio rerio, UniProt Q7T1G6); assay: Fluorescence counterscreen assay for TRPML3 agonists: dose response cell-based high-throughput screening assay to identify agonists of the transient receptor potential channel N1 (TRPN1). [Related pubchem assays: 1526, 1424, 1448 ]; type: functional
Chain of Ion channel NompC (Q7T1G6 whole entry): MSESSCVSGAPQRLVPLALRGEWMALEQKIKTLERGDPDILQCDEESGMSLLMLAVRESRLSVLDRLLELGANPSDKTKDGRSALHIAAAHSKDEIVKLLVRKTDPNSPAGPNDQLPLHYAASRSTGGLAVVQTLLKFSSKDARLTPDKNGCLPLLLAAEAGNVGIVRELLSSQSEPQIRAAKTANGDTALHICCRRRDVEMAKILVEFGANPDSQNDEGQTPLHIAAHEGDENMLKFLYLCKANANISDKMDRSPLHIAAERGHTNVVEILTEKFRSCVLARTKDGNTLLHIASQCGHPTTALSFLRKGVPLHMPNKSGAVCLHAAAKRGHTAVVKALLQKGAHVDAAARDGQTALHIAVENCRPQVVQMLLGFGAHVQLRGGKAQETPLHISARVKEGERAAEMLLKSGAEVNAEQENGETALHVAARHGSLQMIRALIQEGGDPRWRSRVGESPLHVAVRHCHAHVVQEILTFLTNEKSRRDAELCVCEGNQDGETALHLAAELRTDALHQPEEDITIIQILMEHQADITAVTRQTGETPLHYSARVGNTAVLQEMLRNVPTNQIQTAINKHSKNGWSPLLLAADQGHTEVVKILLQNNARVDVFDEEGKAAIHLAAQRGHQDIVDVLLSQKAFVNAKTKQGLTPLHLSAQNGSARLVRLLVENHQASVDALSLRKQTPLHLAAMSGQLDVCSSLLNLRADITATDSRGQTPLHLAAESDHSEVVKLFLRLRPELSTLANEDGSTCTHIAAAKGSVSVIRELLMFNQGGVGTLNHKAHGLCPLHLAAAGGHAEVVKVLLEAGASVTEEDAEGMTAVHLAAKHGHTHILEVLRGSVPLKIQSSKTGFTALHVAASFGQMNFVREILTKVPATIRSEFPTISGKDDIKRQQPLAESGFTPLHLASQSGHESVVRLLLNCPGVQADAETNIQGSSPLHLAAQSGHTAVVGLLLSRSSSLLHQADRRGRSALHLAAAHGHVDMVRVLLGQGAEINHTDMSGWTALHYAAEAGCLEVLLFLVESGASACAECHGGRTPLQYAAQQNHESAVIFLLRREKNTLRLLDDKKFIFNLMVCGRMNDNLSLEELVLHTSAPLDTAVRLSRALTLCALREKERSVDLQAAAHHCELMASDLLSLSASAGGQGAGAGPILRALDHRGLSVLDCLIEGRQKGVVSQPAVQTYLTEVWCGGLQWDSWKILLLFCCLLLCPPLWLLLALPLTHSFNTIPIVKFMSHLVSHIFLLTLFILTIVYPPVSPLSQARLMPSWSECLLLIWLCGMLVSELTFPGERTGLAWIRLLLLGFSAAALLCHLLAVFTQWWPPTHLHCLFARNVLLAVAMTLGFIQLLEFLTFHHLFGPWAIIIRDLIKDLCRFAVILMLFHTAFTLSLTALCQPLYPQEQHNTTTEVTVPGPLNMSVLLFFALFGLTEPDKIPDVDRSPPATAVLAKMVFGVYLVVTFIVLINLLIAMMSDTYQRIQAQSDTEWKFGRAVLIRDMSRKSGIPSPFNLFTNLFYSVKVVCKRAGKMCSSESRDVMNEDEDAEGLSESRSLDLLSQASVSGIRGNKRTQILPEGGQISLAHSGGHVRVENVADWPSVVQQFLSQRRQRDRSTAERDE

[6] = molecular target: Serine/threonine-protein phosphatase (Candida dubliniensis (strain CD36 / CBS 7987 / NCPF 3949 / NRRLY-17841) (Yeast), UniProt B9W6M3); assay: calcineurin pathway inhibitors in yeast reporter, dose response, S. cerevisiae, CDRE-lacZ, luminescence, secondary (AID 2388); type: functional, cell-based;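 further: yeast reporter cells carrying a calcineurin-responsive lacZ construct stimulated with calcium chloride; luminescent beta-galactosidase reporter signal in whole cells rather than isolated phosphatase activity; potency for inhibition where a drop in reporter signal means calcineurin blockade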
Chain of Serine/threonine-protein phosphatase (B9W6M3 whole entry): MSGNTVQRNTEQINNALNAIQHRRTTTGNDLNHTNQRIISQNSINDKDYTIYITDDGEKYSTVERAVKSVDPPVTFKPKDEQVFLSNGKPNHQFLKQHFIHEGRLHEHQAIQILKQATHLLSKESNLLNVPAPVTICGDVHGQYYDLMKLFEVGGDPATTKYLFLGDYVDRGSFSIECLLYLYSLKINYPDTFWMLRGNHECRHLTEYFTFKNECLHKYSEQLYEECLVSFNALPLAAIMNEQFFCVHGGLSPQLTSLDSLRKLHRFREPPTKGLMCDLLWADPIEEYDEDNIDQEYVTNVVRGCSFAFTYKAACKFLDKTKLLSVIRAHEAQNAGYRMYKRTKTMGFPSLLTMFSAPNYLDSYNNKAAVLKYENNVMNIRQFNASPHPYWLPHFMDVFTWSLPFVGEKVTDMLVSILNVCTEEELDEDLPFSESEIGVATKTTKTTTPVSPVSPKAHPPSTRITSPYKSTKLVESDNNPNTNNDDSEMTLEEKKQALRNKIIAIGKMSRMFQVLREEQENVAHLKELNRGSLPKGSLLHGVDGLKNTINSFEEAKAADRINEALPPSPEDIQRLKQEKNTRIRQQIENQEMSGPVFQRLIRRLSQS

[7] = Luminescence Cell-Based Dose Response HTS to Identify Inhibitors of 5'UTR Stem-Loop Driven Prion Protein mRNA Translation in H4 Neuroglioblastoma Cells. [Related pubchem assays: 1827 (Project Summary), 1813 (Primary HTS)]; type: functional
[8] = inhibitors of SNCA 5'UTR-driven reporter translation, confirmation, H4 neuroglioma cells, luminescence (AID 1988); type: functional, cell-based
[9] = test system: BJ; assay: cytotoxicity toward Ras-transformed BJeLR fibroblasts, dose response, cell-based, alamar blue fluorescence, cherrypicked samples (AID 2631); type: functional; conditions: Homo sapiens;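 further: confirmatory dose-response assay in RAS-dependent BJ fibroblasts engineered with TERT, LT and ST, with cytotoxicity read by fluorescence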
[10] = inhibitors of firefly luciferase expression or activity, dose response, H4 neuroglioma cells, luminescence (AID 1990); type: functional, cell-based
[11] = molecular target: Beta-2 adrenergic receptor (Homo sapiens, UniProt P07550); assay: beta2AR agonists driving receptor internalization, dose response, cell-based, FAP fluorogen, flow cytometry, cherry pick 1 (AID 588763); type: functional
Chain of Beta-2 adrenergic receptor (P07550 whole entry): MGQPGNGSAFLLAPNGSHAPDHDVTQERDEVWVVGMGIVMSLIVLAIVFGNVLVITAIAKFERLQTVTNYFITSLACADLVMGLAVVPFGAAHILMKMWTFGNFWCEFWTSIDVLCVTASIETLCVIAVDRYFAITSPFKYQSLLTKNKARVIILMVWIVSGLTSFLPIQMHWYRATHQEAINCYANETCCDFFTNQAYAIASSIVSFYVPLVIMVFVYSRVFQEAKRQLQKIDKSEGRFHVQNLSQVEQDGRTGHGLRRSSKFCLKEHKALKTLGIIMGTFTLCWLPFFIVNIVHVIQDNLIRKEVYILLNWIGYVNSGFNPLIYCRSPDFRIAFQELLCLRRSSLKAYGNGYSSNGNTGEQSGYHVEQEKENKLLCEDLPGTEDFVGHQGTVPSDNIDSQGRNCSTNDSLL

Cc1ccc(S(=O)(=O)N(C)c2ccc(OCC(=O)Nc3nnc(C4CC4)s3)cc2)cc1
EC50 [1]: 4.38 µM (active) | EC50 [2]: 3.05 µM (active) | EC50 [3]: > 150 µM (inactive) | EC50 [4]: > 150 µM (inactive) | EC50 [5]: > 29.9 µM (not active) | EC50 [6]: > 180 µM (inactive)

COc1cccc(Cn2c(-c3nonc3N)nc3ccccc32)c1
EC50 [7]: 24.7 µM (active) | EC50 [8]: 2.69 µM (active) | EC50 [9]: 0.455 µM (active) | EC50 [10]: 9.54 µM (active)

NC(=O)CC(NC(=O)c1ccccc1)c1ccc(NCCCN2CCCC2=O)c([N+](=O)[O-])c1 (stereo unspecified)
EC50 [11]: 1.4 µM (active)

Source: ChEMBL document CHEMBL1201862, “PubChem BioAssay data set” (2004)
